Test results as given in patent US10252984B2, “Inhibiting G protein coupled receptor 6 kinase polypeptides” (Mayo Foundation for Medical Education and Research, priority 2011, dated 2019).

Molecular target: GRK6, recombinant full-length GST-tagged human protein (Homo sapiens (Human), UniProt P43250)
Assay: GRK6 LabChip microfluidic mobility shift kinase assay
Assay type: biochemical
Details: for IC50 values of model inhibitors: at ATP Km, 12-pt dose response, duplicates, values only in FIG. 1
Method: […] All determinations were performed in duplicates. To obtain the IC50 values and the Hill coefficient, the 4-parameter logistic equation was fitted to the data by non-linear regression using XLFit software.

[1] = 8-point concentration-response, top concentration 60 μM, ATP 12 μM (Km)
[2] = GRK6 polypeptide inhibition assay, class symbols

Sequence of GRK6, recombinant full-length GST-tagged human protein (P43250 whole entry): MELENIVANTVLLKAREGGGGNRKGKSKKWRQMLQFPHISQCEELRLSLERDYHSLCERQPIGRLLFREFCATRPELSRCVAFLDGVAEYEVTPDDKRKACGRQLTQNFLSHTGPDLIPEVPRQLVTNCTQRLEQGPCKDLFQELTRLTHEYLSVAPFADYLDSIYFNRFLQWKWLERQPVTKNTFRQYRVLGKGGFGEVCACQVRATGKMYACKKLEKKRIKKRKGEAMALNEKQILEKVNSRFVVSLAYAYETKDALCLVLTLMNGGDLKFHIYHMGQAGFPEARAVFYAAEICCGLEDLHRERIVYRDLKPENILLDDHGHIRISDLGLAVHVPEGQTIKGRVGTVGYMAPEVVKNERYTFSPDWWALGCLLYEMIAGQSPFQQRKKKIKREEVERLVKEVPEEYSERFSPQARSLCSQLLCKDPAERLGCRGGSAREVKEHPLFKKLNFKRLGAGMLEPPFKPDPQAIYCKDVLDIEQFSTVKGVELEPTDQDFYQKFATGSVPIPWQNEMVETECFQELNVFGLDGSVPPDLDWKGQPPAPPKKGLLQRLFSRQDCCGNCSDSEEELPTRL

IC50 [1] [µM] | Compound | further results
6.75 | Oc1c(C(Nc2ccccn2)c2cccnc2)ccc2cccnc12 (stereo not drawn) | 
6.66 | O=C(O)c1ccc([C@@H]2Nc3ccc(I)cc3[C@@H]3C=CC[C@@H]32)cc1 | 
2.55 | CCOc1cccc(=O)c2c(C)[nH]c(C)c12 | 
12.7 | NC(=O)c1cc(N)c2c(c1N)C(=O)c1ccccc1C2=O | 
0.973 | C=CCn1c(N)c(C(=O)OC)c2nc3ccccc3nc21 | 
> 60 | CCCCC(CC)CNC(=O)c1ccc(N/N=C2\C(=O)Nc3ccc(Br)cc32)cc1 (stereo not drawn) | 
9.93 | CCN(CC)c1ccc(C(c2c(C)n[nH]c2O)c2c(C)n[nH]c2O)cc1 | 
12 | Cc1ccc([N+](=O)[O-])c(NC2OC(CO)C(O)C2O)c1 (stereo not drawn) | IC50 [2]: 10.1 to 20 µM
7.16 | COc1ccc(-c2cc(=O)oc3c(O)c(O)ccc23)cc1 | 
6.61 | O=c1cc(-c2ccc(O)cc2)oc2cc(O)c(O)c(O)c12 | 
6.45 | Cc1cc(NC(c2ccccn2)c2ccc3cccnc3c2O)no1 (stereo not drawn) | 
10.1 | Cc1cc2c(C(C)C)c(O)c(O)c(/C=N/CCCN3CCOCC3)c2c(O)c1-c1c(C)cc2c(C(C)C)c(O)c(O)c(/C=N/CCCN3CCOCC3)c2c1O | 
18.8 | CCN(CC)CCn1c2ccccc2c2cnc(N)c(C#N)c21 | 
7.05 | CCOC(=O)c1ccc(CC(=O)c2ccc(O)c(O)c2O)o1 | 
> 60 | Cc1nc2ccccn2c1-c1csc(Nc2ccc(N)cc2)n1 | 
 | Cn1cc(C2=C(c3cn(CCCSC(=N)N)c4ccccc34)C(=O)NC2=O)c2ccccc21 [Ro-31-8220, reference compound] | IC50 values of model inhibitors: in good agreement with published data
11.8 | N#CC1=C(N)Oc2cc(N)ccc2C1c1cccs1 (stereo not drawn) | 
1.56 | CCCCn1c(N)c(C#N)c2nc3ccccc3nc21 | 
28.4 | Oc1ccc(-c2nc3ccc4ccccc4c3c3c2CCC3)cc1O | 
2.83 | CCOC(=O)c1c(N)n(C2CC2)c2nc3ccccc3nc12 | 
8.7 | O=c1cc(-c2ccccc2)oc2cc(O)c(O)c(O)c12 | 
> 60 | Oc1ccc(-c2nnc(NCCc3ccccc3)s2)cc1 | 
6.62 | O=[N+]([O-])c1cc(C2=NN=C(NCc3ccco3)SC2)ccc1Cl | 
47 | Nc1ccc2c3c1C(=O)OC3(O)c1ccccc1C2=O (stereo not drawn) | 
1.44 | Cc1cccc(-c2nnc(SCC(=O)O)[nH]2)c1 | 

IC50 [1] [µM] | Compound | further results
> 60 | CCn1c(COc2ccccc2)nnc1SCCC(=O)O | 
> 60 | O=S(=O)(Nc1ccc(-n2cnnn2)cc1)c1ccc(S(=O)(=O)N2CCCCCC2)cc1 | 
> 60 | COc1ccc(-c2cnc(-c3cccnc3)o2)cc1 | 
> 60 | O=C1Nc2ccc(S(=O)(=O)N3CCCCC3)c3cccc1c23 | 
> 60 | COCCNC(=O)CN(C(=O)c1snc(C(N)=O)c1N)c1ccccc1 | 
 | O=S(=O)(NCCNC/C=C/c1ccc(Br)cc1)c1cccc2cnccc12 [H89, reference compound] | IC50 values of model inhibitors: in good agreement with published data
7.11 | Cc1cccc(NC2=NC(=O)/C(=C/c3ccc(O)c(O)c3)S2)c1C | 
> 60 | CCNC(=S)N(CCO)Cc1cc2cc3c(cc2[nH]c1=O)OCO3 | 
> 60 | Cc1ccc2nc(NC=O)sc2c1 | 
10.4 | c1ccc(-c2ccc(C3=NN=C(NCc4ccco4)SC3)cc2)cc1 | 
4.6 | O=C(O)CSc1nnc(-c2cccs2)[nH]1 | 
> 60 | Cc1ccc(-c2ccccc2NS(=O)(=O)c2ccc(S(=O)(=O)N3CCCCCC3)cc2)o1 | IC50 [2]: > 20 µM
3.4 | CCOc1cccc(=O)c2c(C)n(-c3ccc(C)cc3)c(C)c12 | 
8.44 | CCN(CC)c1ccc(C2Nc3cccc4cccc(c34)N2)c(O)c1 | 
26 | Cc1ccc(C2C(C#N)=C(N)Oc3cc(N)ccc32)cc1 (stereo not drawn) | 
12.5 | C1=Nc2cccc3cccc(c23)N1 | 
17.8 | Nc1ccc(CCc2nc3cc(N)ccc3o2)cc1 | 
6.48 | N#CC1=C(N)Oc2cc(N)ccc2C1c1cc2cc3c(cc2nc1Cl)OCO3 (stereo not drawn) | 
1.37 | CN(C)c1ccc(O)c2c1CC1CC3[C@H](N(C)C)C(O)=C(C(N)=O)C(=O)[C@@]3(O)C(O)=C1C2=O (stereo partly drawn) | 
40.6 | COc1cc(/C=C2/SC(=S)N(c3cccnc3)C2=O)ccc1O | 
16.9 | Cc1cc2c(c(O)c1-c1c(C)cc3c(c1O)/C(=C/NCCCN1CCOCC1)C(=O)C(O)=C3C(C)C)/C(=C/NCCCN1CCOCC1)C(=O)C(O)=C2C(C)C | 
> 60 | CC(=O)Nc1ccc(Nc2nnc(-c3ccc(O)cc3)c3ccccc23)cc1 | 
5.92 | O=C(O)CSc1nnc(-c2ccc(OC(F)(F)F)cc2)[nH]1 | 
4.41 | CCOc1cc(-c2ccc(O)c(O)c2)cc(=O)c2c(C)oc(C)c12 | 
4.48 | CCOc1ccc(NC(c2ccccn2)c2ccc3cccnc3c2O)cc1 (stereo not drawn) | 

Compound | IC50 [1] [µM] | further results
CCCCCCn1c(N)c(C(=O)OC)c2nc3ccccc3nc21 | 1.43 | 
CCCCCn1c(N)c(C(=O)OC)c2nc3ccccc3nc21 | 1.03 | 
